Test results published in publication PMC2895357 (Journal of Medicinal Chemistry, 2010).

How the values were obtained:
[1] = molecular target: T1, TbGalE (UDP-galactose 4′-epimerase from Trypanosoma brucei) (Trypanosoma brucei, UniProt Q8T8E9); test: TbGalE inhibition assay; type: biochemical; settings: for Hill Slope: TbGalE potency curve
T1 sequence (Q8T8E9 1-395): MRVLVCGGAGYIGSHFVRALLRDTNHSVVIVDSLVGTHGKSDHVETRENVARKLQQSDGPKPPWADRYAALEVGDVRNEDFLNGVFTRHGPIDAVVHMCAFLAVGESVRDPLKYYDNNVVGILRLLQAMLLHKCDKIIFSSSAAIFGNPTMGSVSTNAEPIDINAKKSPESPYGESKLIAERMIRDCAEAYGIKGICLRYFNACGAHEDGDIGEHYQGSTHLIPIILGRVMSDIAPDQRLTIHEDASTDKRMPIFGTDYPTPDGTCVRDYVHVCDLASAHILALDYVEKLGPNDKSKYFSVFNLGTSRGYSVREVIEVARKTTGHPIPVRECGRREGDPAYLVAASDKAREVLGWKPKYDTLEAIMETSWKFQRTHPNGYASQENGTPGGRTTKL

[2] = Cytotoxicity assay against human MRC5 cells; type: cell-based; settings: human, MRC5 cells
[3] = test system: Trypanosoma cruzi; settings: cited from earlier work
[4] = test system: cultured T. brucei; type: cell-based, Trypanosoma brucei; settings: whole-cell T. brucei, three days, Alamar Blue
[5] = test system: human MRC5 cells; test: Cytotoxicity assay against human MRC5 cells; type: cell-based; settings: human MRC5 cells, three days, Alamar Blue

Row | SMILES | Hill Slope [1] | EC50 at 3 days [2] | other results
1 | O=C(O)c1ccccc1-c1ccccc1C(=O)Nc1ccc2c(c1)nc(O)c1ccccc12 [compound 1] | 1.8 ± 0.6 | > 50 µM | 
2 | CCn1c2ccccc2c2cc(NC(=O)c3ccccc3-c3ccccc3C(=O)O)ccc21 [compound 2] | 1.2 ± 0.3 | > 50 µM | 
3 | COC1C(OC(=O)c2ccc(C)[nH]2)C(O)C(Oc2ccc3c(O)c(NC(=O)c4ccc(O)c(CC=C(C)C)c4)c(=O)oc3c2Cl)OC1(C)C (stereo not drawn) [compound 3, clorobiocin] | 2.1 ± 0.5 | > 50 µM | inhibition of growth of Trypanosoma cruzi [3]: inhibit the growth
4 | O=C(O)c1ccccc1-c1ccccc1C(=O)Nc1ccc2c(c1)C(=O)c1ccccc1-2 [compound 5] |  | > 50 µM | 
5 | O=C(O)c1ccccc1-c1ccccc1C(=O)Nc1ccc2c(c1)Cc1cc(F)ccc1-2 [compound 10] |  | > 50 µM | 
6 | O=C(O)c1ccccc1-c1ccccc1C(=O)Nc1cc2c3ccccc3ccc2c2ccccc12 [compound 12] |  | > 50 µM | 
7 | O=C(O)c1cc(Cl)ccc1-c1ccc(Cl)cc1C(=O)Nc1ccc2c(c1)Cc1ccccc1-2 [compound 13] |  | > 50 µM | 
8 | O=C(O)c1cc(Cl)ccc1-c1ccc(Cl)cc1C(=O)NC1=CC2=C(CC1)c1c(Cl)cc(Cl)cc1C2 [compound 14] |  |  | Tb EC50 [4]: no activity; MRC5 EC50 [5]: demonstrated inhibition of MRC5 growth
9 | CO[C@@H]1[C@@H](OC(N)=O)[C@@H](O)[C@H](Oc2ccc3c(O)c(NC(=O)c4ccc(O)c(CC=C(C)C)c4)c(=O)oc3c2C)OC1(C)C [novobiocin, reference compound] |  |  | inhibition at 10 µM ([1]; read-out: TbGalE inhibition at 10 μM): ≤ 50%; inhibition of growth of Trypanosoma cruzi [3]: inhibits the growth
